Test results from patent publication US7759366B2 (Sanofi-Aventis, priority 2006, dated 2010).
pIC50: −log10 of the molar value.

Target: hCB1R (Homo sapiens, UniProt P21554)
Sequence (P21554 whole entry): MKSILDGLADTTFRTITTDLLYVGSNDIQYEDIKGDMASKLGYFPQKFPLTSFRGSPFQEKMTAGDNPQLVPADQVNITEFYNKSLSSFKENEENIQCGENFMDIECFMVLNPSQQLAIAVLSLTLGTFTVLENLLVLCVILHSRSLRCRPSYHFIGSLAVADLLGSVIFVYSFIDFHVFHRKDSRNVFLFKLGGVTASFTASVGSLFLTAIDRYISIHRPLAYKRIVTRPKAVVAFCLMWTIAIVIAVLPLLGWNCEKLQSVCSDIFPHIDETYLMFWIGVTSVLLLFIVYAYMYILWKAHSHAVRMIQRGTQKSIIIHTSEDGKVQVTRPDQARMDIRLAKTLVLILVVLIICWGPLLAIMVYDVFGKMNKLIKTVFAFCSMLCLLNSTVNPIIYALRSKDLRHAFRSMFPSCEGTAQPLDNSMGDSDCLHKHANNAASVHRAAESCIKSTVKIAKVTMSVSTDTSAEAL
Assay: In vitro functional assay (FLIPR, intracellular Ca2+) with recombinant HEK293 cells, CB1
Format: cell-based
Set-up: expressed in transfected cells; host or cells: HEK293
Settings: recombinant HEK293 cells expressing CB1 and Galpha16; 20 min preincubation, then reference agonist; Ca2+ change; read-out: hCB1R: FLIPR; IC50
Excerpt: In Vitro Functional Assays with Recombinant Cells:

CC1(C)C(=O)N(c2ccc(C#N)c(C(F)(F)F)c2)C(=O)N1Cc1ccc(C(F)(F)F)cc1Nc1ccc(C(=O)O)cc1 [Example 107, 4-{2-[3-(4-cyano-3-trifluoromethylphenyl)-5,5-dimethyl-2,4-dioxoimidazolidin-1-ylmethyl]-5-trifluoromethylphenylamino}benzoic acid]
pIC50: 6.95

CC1(C)C(=O)N(c2ccc(C#N)c(C(F)(F)F)c2)C(=O)N1Cc1ccccc1Nc1ccc(N)cc1 [Example 113, 4-{3-[2-(4-Aminophenylamino)benzyl]-4,4-dimethyl-2,5-dioxoimidazolidin-1-yl}-2-trifluoromethylbenzonitrile]
pIC50: 8.40

CC(C)(C)OC(=O)c1ccc(Nc2cc(F)ccc2CN2C(=O)N(c3ccc(C#N)c(C(F)(F)F)c3)C(=O)C2(C)C)cc1 [Example 125, tert-butyl 4-{2-[3-(4-cyano-3-trifluoromethylphenyl)-5,5-dimethyl-2,4-dioxoimidazolidin-1-ylmethyl]-5-fluorophenylamino}benzoate]
pIC50: 6.96

CC(C)Oc1ccc(Nc2ccccc2CN2C(=O)N(c3ccc(C#N)c(C(F)(F)F)c3)C(=O)C2(C)C)cc1 [Example 127, 4-{3-[2-(4-isopropoxyphenylamino)benzyl]-4,4-dimethyl-2,5-dioxoimidazolidin-1-yl}-2-trifluoromethylbenzonitrile]
pIC50: 8.15

COc1ccc(CN2C(=O)N(c3ccc(C#N)c(C(F)(F)F)c3)C(=O)C2(C)C)c(Nc2ccc(C(=O)O)cc2)c1 [Example 130, 4-{2-[3-(4-cyano-3-trifluoromethylphenyl)-5,5-dimethyl-2,4-dioxoimidazolidin-1-ylmethyl]-5-methoxyphenylamino}benzoic acid]
pIC50: 7.49

CC1(C)C(=O)N(c2ccc(C#N)c(C(F)(F)F)c2)C(=O)N1Cc1ccc(Cl)cc1Nc1ccc(C(=O)O)cc1 [Example 131, 4-{5-chloro-2-[3-(4-cyano-3-trifluoromethylphenyl)-5,5-dimethyl-2,4-dioxoimidazolidin-1-ylmethyl]phenylamino}benzoic acid]
pIC50: 7.82

CC1(C)C(=O)N(c2ccc(C#N)c(C(F)(F)F)c2)C(=O)N1Cc1ccc(F)cc1Nc1ccc(C(=O)O)cc1 [Example 133, 4-{2-[3-(4-cyano-3-trifluoromethylphenyl)-5,5-dimethyl-2,4-dioxoimidazolidin-1-ylmethyl]-5-fluorophenylamino}benzoic acid]
pIC50: 8.00

CC1(C)C(=O)N(c2ccc(C#N)c(C(F)(F)F)c2)C(=O)N1Cc1ccccc1Nc1ccc(O)cc1 [Example 135, 4-{3-[2-(4-Hydroxyphenylamino)benzyl]-4,4-dimethyl-2,5-dioxoimidazolidin-1-yl}-2-trifluoromethylbenzonitrile]
pIC50: 9.00

COC(=O)C1=C[C@@H](O)[C@H](O)[C@@H](Oc2ccc(Nc3ccccc3CN3C(=O)N(c4ccc(C#N)c(C(F)(F)F)c4)C(=O)C3(C)C)cc2)O1 [Example 145, methyl (4R,5S,6S)-6-(4-{2-[3-(4-cyano-3-trifluoromethylphenyl)-5,5-dimethyl-2,4-dioxoimidazolidin-1-ylmethyl]phenylamino}phenoxy)-4,5-dihydroxy-5,6-dihydro-4H-pyran-2-carboxylate]
pIC50: 7.85

CC(=O)Nc1ccc(Nc2ccccc2CN2C(=O)N(c3ccc(C#N)c(C(F)(F)F)c3)C(=O)C2(C)C)cc1 [Example 148, N-(4-{2-[3-(4-Cyano-3-trifluoromethylphenyl)-5,5-dimethyl-2,4-dioxoimidazolidin-1-ylmethyl]phenylamino}phenyl)acetamide]
pIC50: 7.96

COC(=O)c1ccc(Nc2cc(F)ccc2CN2C(=O)N(c3ccc(F)c(C(F)(F)F)c3)C(=O)C2(C)C)cc1 [Example 154, Methyl 4-{5-fluoro-2-[3-(4-fluoro-3-trifluoromethylphenyl)-5,5-dimethyl-2,4-dioxoimidazolidin-1-ylmethyl]phenylamino}benzoate]
pIC50: 8.10

COC(=O)c1ccc(Nc2cc(F)ccc2CN2C(=O)N(c3ccc(C#N)c(C4CC4)c3)C(=O)C2(C)C)cc1 [Example 158, Methyl 4-{2-[3-(4-cyano-3-cyclopropylphenyl)-5,5-dimethyl-2,4-dioxoimidazolidin-1-ylmethyl]-5-fluorophenylamino}benzoate]
pIC50: 8.05

CC1(C)C(=O)N(c2ccc(C#N)c(C3CC3)c2)C(=O)N1Cc1ccc(F)cc1Nc1ccc(C(=O)O)cc1 [Example 159, 4-{2-[3-(4-cyano-3-cyclopropylphenyl)-5,5-dimethyl-2,4-dioxoimidazolidin-1-ylmethyl]-5-fluorophenylamino}benzoic acid]
pIC50: 8.70

CC1(C)C(=O)N(c2ccc(C#N)c(C(F)(F)F)c2)C(=O)N1Cc1ccccc1Nc1ccc(C(=O)NCCS(=O)(=O)O)cc1 [Example 164, 2-(4-{2-[3-(4-Cyano-3-trifluoromethylphenyl)-5,5-dimethyl-2,4-dioxoimidazolidin-1-ylmethyl]phenylamino}benzoylamino)ethanesulfonic acid]
pIC50: 6.86

Cc1cc(N2C(=O)N(Cc3ccc(F)cc3Nc3ccc(C(=O)O)cc3)C(C)(C)C2=O)ccc1C#N [Example 166, 4-{2-[3-(4-cyano-3-methylphenyl)-5,5-dimethyl-2,4-dioxoimidazolidin-1-ylmethyl]-5-fluorophenylamino}benzoic acid]
pIC50: 7.12

CC(C)(C)c1cc(N2C(=O)N(Cc3ccc(F)cc3Nc3ccc(C(=O)O)cc3)C(C)(C)C2=O)ccc1C#N [Example 169, 4-{2-[3-(3-tert-butyl-4-cyanophenyl)-5,5-dimethyl-2,4-dioxoimidazolidin-1-ylmethyl]-5-fluorophenylamino}benzoic acid]
pIC50: 8.05

CC1(C)C(=O)N(c2ccc(C#N)c(C(F)(F)F)c2)C(=O)N1Cc1ccccc1Nc1ccc(NS(C)(=O)=O)cc1 [Example 175, N-(4-{2-[3-(4-Cyano-3-trifluoromethylphenyl)-5,5-dimethyl-2,4-dioxoimidazolidin-1-ylmethyl]phenylamino}phenyl)methanesulfonamide]
pIC50: 8.05

COC(=O)CNc1ccc(Nc2ccccc2CN2C(=O)N(c3ccc(C#N)c(C(F)(F)F)c3)C(=O)C2(C)C)cc1 [Example 177, Methyl (4-{2-[3-(4-cyano-3-trifluoromethylphenyl)-5,5-dimethyl-2,4-dioxoimidazolidin-1-ylmethyl]phenylamino}phenylamino)acetate]
pIC50: 9.00

COC(=O)CN(CC(=O)OC)c1ccc(Nc2ccccc2CN2C(=O)N(c3ccc(C#N)c(C(F)(F)F)c3)C(=O)C2(C)C)cc1 [Example 178]
pIC50: 8.40

COc1ncc(Nc2ccccc2CN2C(=O)N(c3ccc(C#N)c(C(F)(F)F)c3)C(=O)C2(C)C)cn1 [Example 180, 4-{3-[2-(2-methoxypyrimidin-5-ylamino)benzyl]-4,4-dimethyl-2,5-dioxoimidazolidin-1-yl}-2-trifluoromethylbenzonitrile]
pIC50: 9.00

Cc1cnccc1Nc1ccccc1CN1C(=O)N(c2ccc(C#N)c(C(F)(F)F)c2)C(=O)C1(C)C [Example 181, 4-{4,4-dimethyl-3-[2-(3-methylpyridin-4-ylamino)benzyl]-2,5-dioxoimidazolidin-1-yl}-2-trifluoromethylbenzonitrile]
pIC50: 8.10

Cc1cc(N2C(=O)N(Cc3ccc(F)cc3Nc3ccc(C(N)=O)cc3)C(C)(C)C2=O)ccc1C#N [Example 190, 4-{2-[3-(4-Cyano-3-methylphenyl)-5,5-dimethyl-2,4-dioxoimidazolidin-1-ylmethyl]-5-fluorophenylamino}benzamide]
pIC50: 7.12
